Results published in patent publication US10232020B2, “Incretin-insulin conjugates” (priority 2014, dated 2019).
Non-standard residues stand in square brackets, D forms with d. No end group written: not given here. Aib = CC(C)(N)C(=O)O

Columns and labels:
[1] = Dose titration on food intake and blood glucose (FIGS. 20-25); format: in vivo
[2] = system: GPL-1 receptor knock out mice; experiment: Glucose tolerance test and food intake in GLP-1 receptor knock out mice; format: in vivo; conditions: GLP-1 knock out mice; 3 nmol/kg; FIG. 28
From the text: FIG. 26 is a graph of a glucose tolerance test conducted on wild type mice (solid lines) and on GPL-1 receptor knock out mice (dashed lines).

insulin receptor (IR-B) = target: T1, insulin receptor (IR-B) (Homo sapiens, UniProt P06213); experiment: In vitro activity at insulin B receptor (IR-B); format: cell-based; conditions: FIG. 1B
T1 construct: expressed in transfected cells
Experimental: Color development was stopped 5 min later by adding 0.05 ml 1 N HCl. Absorbance at 450 nm was measured on Titertek Multiscan MCC340 (ThermoFisher, Pittsburgh, Pa.). […] Structures associated with the abbreviated lipidated groups designated in Table 4 are as follows: […]

[3] = target: insulin subtype A receptor (Homo sapiens, UniProt P06213); experiment: In vitro activity at insulin subtype A receptor; format: cell-based; conditions: FIG. 1A
normal mice = experiment: Blood glucose after single administration to normal mice; format: in vivo; conditions: 50 nmoles/kg, FIG. 8
Experimental: Six- to eight-week-old male C57BL/6 mice were maintained at 23° C., constant humidity, and a 12-h light-dark cycle. The acute in vivo effects of select peptides were evaluated by subcutaneously injecting peptides solubilized in physiologically buffered saline or a vehicle control to normal or diabetic mice. Blood glucose was measured at various time points through the course of a 24 hr period following administration of the peptides. Each group of mice contained 8 animals per group. The average body weight was ˜25 g. Mice were made diabetic by administration of streptozotocin.

Substance: CIU-093: XEGTFTSDUSIYLDKQAAXEFVNWLLAGGPSSGAPPPS (SEQ ID NO: 1996); C(S-S)—CH2CH2CH2-B^1 Insulin
- food intake ([1]; FIG. 22): does not suppress food intake
- blood glucose ([1]; FIG. 25): a much higher dosage is required to get the same glucose lowering
- food intake [2]: no reduction in food intake

Substance: GLP-DP8: GLP-1/insulin fusion, SEQ ID NO: 700; GLP-1 agonist peptide fused to the N-terminus of a single chain insulin analog (HAEGTFTSDVSSYLEEQAAREFIAWLVRGRG; GLP-1 analog)
- potency at the insulin B receptor (insulin receptor (IR-B)): about 9.9 nanomoles
- potency at the A receptor [3]: about 2.07 nanomoles

Substance: IUB-48: GLP-1 agonist, HXEGTFTSDVSSYLEEQAAKEFIAWLVKGGPSSGAPPPS (SEQ ID NO: 1932) (H[Aib]EGTFTSDVSSYLEEQAAKEFIAWLVKGGPSSGAPPPS)
- blood glucose levels (normal mice): about 60 mg/dL
